Measured values from publication PMC9112895, “Selective Inhibition of Plasmodium falciparum ATPase 6 by Artemisinins and Identification of New Classes of Inhibitors after Expression in Yeast” (Antimicrobial Agents and Chemotherapy, 2022).

Molecular target: T1, L263E PfATP6 (Plasmodium falciparum, UniProt Q08853, L263E)
T1 construct: expressed in transfected cells; host or cells: Saccharomyces cerevisiae K667-derived strain
T1 sequence (Q08853 1-1228 L263E): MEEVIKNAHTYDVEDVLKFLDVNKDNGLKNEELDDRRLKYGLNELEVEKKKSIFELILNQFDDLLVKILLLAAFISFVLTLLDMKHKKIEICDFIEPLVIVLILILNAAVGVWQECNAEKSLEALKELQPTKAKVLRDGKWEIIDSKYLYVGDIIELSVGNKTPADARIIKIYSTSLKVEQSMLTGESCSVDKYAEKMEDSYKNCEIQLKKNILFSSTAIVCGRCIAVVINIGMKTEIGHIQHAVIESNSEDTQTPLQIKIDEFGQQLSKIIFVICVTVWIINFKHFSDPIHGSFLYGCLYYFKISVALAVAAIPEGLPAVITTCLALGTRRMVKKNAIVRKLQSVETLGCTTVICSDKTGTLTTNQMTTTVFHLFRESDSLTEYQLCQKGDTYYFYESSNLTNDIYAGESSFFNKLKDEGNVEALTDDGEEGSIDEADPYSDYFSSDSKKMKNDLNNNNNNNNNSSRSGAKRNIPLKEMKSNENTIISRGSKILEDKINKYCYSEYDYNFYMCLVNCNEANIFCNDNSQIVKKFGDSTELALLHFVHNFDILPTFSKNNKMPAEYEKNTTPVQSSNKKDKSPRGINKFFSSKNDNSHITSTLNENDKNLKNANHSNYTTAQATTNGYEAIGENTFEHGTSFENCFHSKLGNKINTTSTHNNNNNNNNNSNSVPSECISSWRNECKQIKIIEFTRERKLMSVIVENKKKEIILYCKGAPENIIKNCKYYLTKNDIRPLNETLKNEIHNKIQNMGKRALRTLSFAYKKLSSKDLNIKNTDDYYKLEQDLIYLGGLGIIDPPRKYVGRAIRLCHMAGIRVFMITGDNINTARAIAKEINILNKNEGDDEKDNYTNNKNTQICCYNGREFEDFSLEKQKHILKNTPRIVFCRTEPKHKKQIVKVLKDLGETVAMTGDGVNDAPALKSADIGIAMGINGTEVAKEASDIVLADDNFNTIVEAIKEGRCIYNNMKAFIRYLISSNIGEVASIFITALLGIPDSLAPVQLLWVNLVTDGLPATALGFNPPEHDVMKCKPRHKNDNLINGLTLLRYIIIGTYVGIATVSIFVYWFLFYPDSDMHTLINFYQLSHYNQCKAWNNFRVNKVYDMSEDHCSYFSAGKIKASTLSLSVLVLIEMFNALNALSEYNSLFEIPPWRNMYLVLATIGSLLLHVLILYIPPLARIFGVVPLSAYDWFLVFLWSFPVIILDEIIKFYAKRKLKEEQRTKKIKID
Experiment: Yeast whole-cell assay, PfATP6 L263E mutant
Assay type: cell-based
Conditions: L263 mutant; read-out: IC50 (mean ± SD)
Description: Yeast transformations were performed using the method described by Gietz and Schiestl ([48]), and transformants were selected by an uracil auxotrophic marker. Transformations were confirmed by colony PCR. Both K667 and K667Δpdr5::HIS were transformed with the following plasmids: pUGpd plasmid as a vector-only control (derived from pRS316 [49]); br434 plasmid (derived from pRS316 [50]) containing the SERCA1a coding region from rabbit skeletal fast-twitch muscle (pbr434-SERCA1a); and pUGpd containing the yeast-optimized coding region of PfATP6 from Plasmodium falciparum (pUGpd-PfATP6). Site-directed mutagenesis was performed on the SERCA1a coding region to produce the mutation E255L in the protein. Mutations were also introduced into the PfATP6 coding region to produce mutations L263E, A623E, and S769N and the double mutation A623E/S769N ([13]).
The screening assay used here was developed from the protocol used by Pulcini et al. ([13]). […] The optimal calcium concentration was periodically monitored and, if necessary, adjusted using a calcium concentration range of 10 to 30 mM. […] The yeast growth was estimated from the absorbance at 620 nm in a Tecan plate reader. […] The data collected were analyzed using GraphPad Prism v9.0 (GraphPad software, San Diego, CA, U.S.A).

How did the IC50 turn out when `CC(=O)C1=C(O)[C@@H]2[C@H]3c4c[nH]c5cccc(c45)C[C@H]3C(C)(C)N2C1=O` [CPA, cyclopiazonic acid] was run?
The IC50 was 5.21 µM.
